Tested on: mice anxiety-like behavior
Assay: elevated plus maze
Type: in vivo
Description: Male ICR mice (n = 317 in total) aged 5 weeks and weighing 32 ± 2 g were purchased from Shimizu Laboratory Supplies (Kyoto, Japan). For the social defeat stress test, we used 28 C57BL/6J mice (5 weeks old, Shimizu Laboratory Supplies) and 30 ICR mice (7–8 weeks old, Charles River Labs Japan, Yokohama, Kanagawa, Japan). Mice were maintained for at least 1 week prior to experiments. Animals were kept in groups in plastic cages. They had free access to food and water, and were kept in a 12-h light/dark cycle (08:00–20:00). Experiments were carried out between 10:00 and 18:00 in a quiet and air-conditioned experimental room, in which mice were habituated for at least 30 min before each experiment. Animal experiments were performed in accordance with the guidelines of the Physiological Society of Japan and were approved by the Committees on Animal Experiments at Kansai Medical University and the Kurashiki University of Science and the Arts. Ostruthin was initially dissolved in DMSO at higher concentration (100 mM) and then diluted in phosphate-buffered saline (PBS). The diluted solution was mixed vigorously for more than 10 min before the experiments, and an equal volume of DMSO was added to PBS as a control. PBS and ostruthin were administered intraperitoneally 30 min before mice behavioral tests (0.01 ml/g body weight). Each animal was used only once, except for the wheel running test, which was carried out immediately after elevated plus maze.
The elevated plus maze apparatus consisted of four arms set in a cross pattern from a neutral central square (6 × 6 cm). Two opposite arms were delimited by vertical walls (closed arms, 30 × 15 × 6 cm), whereas the other two arms had unprotected edges (open arms, 30 × 6 cm). The maze was elevated 40 cm above the floor. At the beginning of each 5 min test session, a mouse was placed in the central neutral area, facing one of the open arms. The total number of the entries to open arms and time spent in the open arms were measured. After removal of the animal, the apparatus was cleaned and wiped.

**Q.** What does the source list for `CC(C)=CCC/C(C)=C/Cc1cc2ccc(=O)oc2cc1O` [ostruthin]?
**A.** number of entries to the open arm (20 mg/kg i.p., vs 5 mg/kg): decreased; time spent on the open arm (20 mg/kg i.p., vs 5 mg/kg): decreased; number of entries to the open arm (2 and 5 mg/kg i.p. 30 min before test, vs 0 mg/kg): increased; number of entries to the open arm (amlodipine experiment: single compound vs PBS, ostruthin 5 mg/kg or amlodipine 10 mg/kg, n = 6): increased; number of entries to the open arm (ostruthin 5 mg/kg co-administered with amlodipine 10 mg/kg, vs amlodipine, n = 6): did not increase; time spent in the open arm (ostruthin 5 mg/kg in the absence of amlodipine, vs PBS, n = 6): increased; increase of time spent in the open arm (ostruthin 5 mg/kg in the presence of amlodipine 10 mg/kg, n = 6): did not

From paper PMC6093650, “Antidepressive and anxiolytic effects of ostruthin, a TREK-1 channel activator” (PLoS ONE, 2018)
